In data set [1] the test system is Squirrel monkey. Nature of the data set: Anxiolytic activity in squirrel monkey conditioned emotional response test at 3 mg/kg, po. It counts as functional, organism-based. Also noted: dose 3 mg/kg. The conditions noted are these: Saimiri sciureus.
A short description of data set [2]: Plasma clearance in dog. It counts as ADME, organism-based, Canis lupus familiaris.
Data set [3] can be described thus: Oral bioavailability in dog. It counts as ADME, organism-based, Canis lupus familiaris. The conditions noted are these: in vivo.
The target of data set [4] is T1, GABA-A receptor; alpha-1/beta-3/gamma-2 (Homo sapiens, UniProt P14867+P18507+P28472).
T1 sequence (P14867 whole entry): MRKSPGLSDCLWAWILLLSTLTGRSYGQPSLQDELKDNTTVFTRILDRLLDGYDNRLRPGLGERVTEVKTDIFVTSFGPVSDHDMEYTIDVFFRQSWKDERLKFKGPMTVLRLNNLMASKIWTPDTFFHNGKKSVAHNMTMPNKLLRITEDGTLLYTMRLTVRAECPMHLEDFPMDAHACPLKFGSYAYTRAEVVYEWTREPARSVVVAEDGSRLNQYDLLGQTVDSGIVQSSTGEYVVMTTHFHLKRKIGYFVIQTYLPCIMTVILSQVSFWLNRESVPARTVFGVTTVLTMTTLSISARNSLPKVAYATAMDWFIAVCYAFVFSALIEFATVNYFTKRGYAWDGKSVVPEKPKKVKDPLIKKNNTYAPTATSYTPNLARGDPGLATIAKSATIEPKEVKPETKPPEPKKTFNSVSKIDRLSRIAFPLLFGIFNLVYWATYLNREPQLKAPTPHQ
T1 sequence (P18507 whole entry): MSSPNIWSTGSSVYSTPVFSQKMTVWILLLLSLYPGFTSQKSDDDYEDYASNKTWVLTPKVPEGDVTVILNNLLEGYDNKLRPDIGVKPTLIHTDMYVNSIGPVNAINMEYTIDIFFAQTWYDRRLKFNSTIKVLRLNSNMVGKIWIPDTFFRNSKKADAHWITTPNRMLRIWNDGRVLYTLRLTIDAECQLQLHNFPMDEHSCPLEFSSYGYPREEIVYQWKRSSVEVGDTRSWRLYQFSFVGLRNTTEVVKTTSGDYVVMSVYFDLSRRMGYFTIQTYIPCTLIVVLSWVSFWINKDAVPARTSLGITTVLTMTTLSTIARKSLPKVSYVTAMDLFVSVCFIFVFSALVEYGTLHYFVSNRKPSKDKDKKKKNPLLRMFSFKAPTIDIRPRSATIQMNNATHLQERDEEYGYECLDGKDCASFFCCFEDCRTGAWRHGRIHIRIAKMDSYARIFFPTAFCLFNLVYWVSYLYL
T1 sequence (P28472 whole entry): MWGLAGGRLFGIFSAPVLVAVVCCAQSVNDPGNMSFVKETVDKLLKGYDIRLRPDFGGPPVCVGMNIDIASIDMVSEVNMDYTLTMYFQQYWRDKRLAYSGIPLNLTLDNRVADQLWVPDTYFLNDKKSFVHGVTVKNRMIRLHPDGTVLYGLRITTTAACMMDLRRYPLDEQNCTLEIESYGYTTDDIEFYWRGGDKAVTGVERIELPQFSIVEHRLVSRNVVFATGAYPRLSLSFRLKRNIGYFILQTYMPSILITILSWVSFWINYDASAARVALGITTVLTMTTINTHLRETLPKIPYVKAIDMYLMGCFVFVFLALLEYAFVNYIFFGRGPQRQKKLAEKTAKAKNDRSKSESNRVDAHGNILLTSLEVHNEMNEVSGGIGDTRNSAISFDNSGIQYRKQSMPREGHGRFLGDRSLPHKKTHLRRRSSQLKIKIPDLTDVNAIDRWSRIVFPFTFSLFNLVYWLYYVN
Description: Displacement of [3H]-Ro15-1788 from human recombinant GABAA alpha1 in combination with beta-3-gamma-2 expressed in L(tk-) cells. It counts as cell-based. (Displacement assays read how much labelled ligand stays bound in the presence of the test substance.)

A short description of data set [5]: Half life in dog. It counts as ADME, organism-based, Canis lupus familiaris. Conditions: in vivo.
The target in data set [6] is GABA-A receptor; alpha-5/beta-3/gamma-2 (Homo sapiens) (UniProt P18507+P28472+P31644). Description: Efficacy against human recombinant GABAA alpha5 in combination with beta3gamma2 expressed in L(tk-) cells by whole cell patch clamp method. The class given is functional, cell-based. In general terms: Patch clamp records ionic current or voltage across a cell membrane.

The target of data set [7] is T2, GABA-A receptor; alpha-5/beta-3/gamma-2 (Homo sapiens, UniProt P18507+P28472+P31644).
T2 sequence (P18507 whole entry): T1 sequence (P18507 whole entry)
T2 sequence (P28472 whole entry): T1 sequence (P28472 whole entry)
T2 sequence (P31644 whole entry): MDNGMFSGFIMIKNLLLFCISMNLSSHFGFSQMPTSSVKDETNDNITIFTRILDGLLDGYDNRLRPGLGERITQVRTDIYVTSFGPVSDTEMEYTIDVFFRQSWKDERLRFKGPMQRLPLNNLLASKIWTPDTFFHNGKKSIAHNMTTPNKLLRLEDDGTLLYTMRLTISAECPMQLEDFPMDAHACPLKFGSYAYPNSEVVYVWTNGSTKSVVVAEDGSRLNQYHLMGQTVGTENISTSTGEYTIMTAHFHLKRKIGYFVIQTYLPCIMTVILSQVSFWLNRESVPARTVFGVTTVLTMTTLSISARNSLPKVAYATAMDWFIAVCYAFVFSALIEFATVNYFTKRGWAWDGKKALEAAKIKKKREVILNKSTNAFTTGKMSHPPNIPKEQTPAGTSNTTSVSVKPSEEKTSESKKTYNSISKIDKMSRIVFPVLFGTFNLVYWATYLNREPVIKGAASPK
Description: Displacement of [3H]Ro-151788 from human recombinant GABAA alpha5 in combination with beta3gamma2 expressed in L(tk-) cells. It counts as cell-based.

For data set [8], the system named is Rattus norvegicus. Nature of the data set: Effect on activity impairment in rat chain pulling assay at 30 mg/kg, po. The class given is functional, organism-based. Also noted: dose 30 mg/kg.
A short description of data set [9]: Plasma clearance in rat. The class given is ADME, organism-based.
The nature of data set [10]: Half life in rat. The class given is ADME, organism-based. The conditions noted are these: in vivo.
For data set [11], the target named is T3, GABA-A receptor; alpha-2/beta-3/gamma-2 (Homo sapiens, UniProt P18507+P28472+P47869).
T3 sequence (P18507 whole entry): T1 sequence (P18507 whole entry)
T3 sequence (P28472 whole entry): T1 sequence (P28472 whole entry)
T3 sequence (P47869 whole entry): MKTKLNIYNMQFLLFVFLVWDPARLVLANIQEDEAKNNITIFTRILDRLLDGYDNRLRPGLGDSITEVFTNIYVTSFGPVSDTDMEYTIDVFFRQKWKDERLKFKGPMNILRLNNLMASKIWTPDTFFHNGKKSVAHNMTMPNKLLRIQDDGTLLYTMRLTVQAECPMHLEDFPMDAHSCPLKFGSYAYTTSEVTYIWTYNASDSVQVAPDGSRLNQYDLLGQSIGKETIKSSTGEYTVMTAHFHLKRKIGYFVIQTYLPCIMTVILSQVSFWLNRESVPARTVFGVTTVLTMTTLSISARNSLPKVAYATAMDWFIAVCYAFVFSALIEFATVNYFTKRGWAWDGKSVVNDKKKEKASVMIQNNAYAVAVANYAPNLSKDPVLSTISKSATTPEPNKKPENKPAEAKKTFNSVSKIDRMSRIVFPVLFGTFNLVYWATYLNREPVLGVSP
Description: Displacement of [3H]-Ro15-1788 from human recombinant GABAA alpha2 in combination with beta3gamma2 expressed in L(tk-) cells. The class given is cell-based.

Data set [12] is described as follows: Oral bioavailability in rat. It counts as ADME, organism-based. Conditions: in vivo.
The target of data set [13] is GABA-A receptor; alpha-1/beta-3/gamma-2 (Homo sapiens) (UniProt P14867+P18507+P28472). Description: Efficacy against human recombinant GABAA alpha-1 in combination with beta3gamma2 expressed in L(tk-) cells by whole cell patch clamp method. It counts as functional, cell-based.
Data set [14] relates to Squirrel monkey. Nature of the data set: Anxiolytic activity in squirrel monkey conditioned emotional response test at 0.3 mg/kg, po. It counts as functional, organism-based. Conditions: Saimiri sciureus. Also noted: dose 0.3 mg/kg.

Active and inactive are the calls of the source.

As usually defined, the clearance is the rate of elimination divided by the concentration. As a reminder, the bioavailability is the share of a dose that reaches the circulation, judged against a reference dose that is usually intravenous. Usually Ki stands for a measure of affinity in units of concentration, obtained from inhibition or displacement. As usually defined, the half-life is the time needed for the level to fall by half in the phase considered. In the case of `N#Cc1cc(F)ccc1-c1cc(-c2cnc3nc(C(F)(F)F)ccn23)ccc1F`, the outcome in data set [1] and in data set [14] was Active. Further, the clearance in [2] worked out at 2.9 mL/min/kg; in data set [9], 10.3 mL/min/kg. Also, the bioavailability came out at 29% in data set [3] and 53% in [12]. Besides, the inhibition constant Ki is 1200 pM in data set [4], 500 pM in data set [7] and 1000 pM in data set [11]. Further, the half-life in data set [5] is 32 h; in data set [10], 7.3 h. For the same molecule, the figures for the Efficacy in data set [6] and in data set [13] were 2% and -2%, respectively. Moreover, the outcome in [8] was inactive.
In the case of `CC(C)(O)c1ccn2c(-c3ccc(F)c(-c4cccnc4)c3)cnc2n1`, the outcome in data set [1] and in data set [14] was Active. Also, the values for the clearance in data set [2] and in data set [9] were 8.2 mL/min/kg and 9.1 mL/min/kg, respectively. For the same molecule, the bioavailability was 48% in [3] and 77% in data set [12]. Further, the Ki in data set [4] stood at 850 pM; in data set [7], 530 pM; in data set [11] it was 3700 pM. The values for the half-life in data set [5] and in [10] were 0.7 h and 1.7 h, respectively. Moreover, the Efficacy was 20% in data set [6] and 6.2% in data set [13]. Further, the result in data set [8] was inactive.

The record behind these values is ChEMBL document CHEMBL1148587, “Imidazo[1,2-a]pyrimidines as functionally selective and orally bioavailable GABA(A)alpha2/alpha3 binding site agonists for the treatment of anxiety disorders” (J Med Chem, 2006).
